Source: PubChem BioAssay AID588597 (Sanford-Burnham Center for Chemical Genomics, 2011)
Calls of active or inactive are those of the source.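 How the source made its calls: active means mean EC50 at or below 20 µM; inactive means the rest.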

Biological target: CHO-CHOP luciferase reporter, luminescence, UPR apoptotic arm
Assay: CHOP reporter activation in CHO-CHOP cells, SAR follow-up, counter-screen for UPR adaptive arm activator project, cell-based, luciferase luminescence, set 2 (AID 588597)

Compound	EC50
O=C(Nc1cccc(Cl)c1)c1cc(-c2ccncc2)nc2ccccc12	> 80 µM (inactive)
Cc1cc(NC(=O)c2cc(-c3ccncc3)nc3ccccc23)ccc1F	> 80 µM (inactive)
O=C(Nc1cccc(F)c1Br)c1cc(-c2ccncc2)nc2ccccc12	> 80 µM (inactive)
Cc1ccc(NC(=O)c2cc(-c3ccncc3)nc3ccccc23)cc1	8.56 µM
O=C(Nc1ccc(F)c(F)c1)c1cc(-c2ccncc2)nc2ccccc12	> 80 µM (inactive)
O=C(Nc1cccc(C(F)(F)F)c1)c1cc(-c2ccncc2)nc2ccccc12	> 80 µM (inactive)
O=C(Nc1cccc(Br)c1)c1cc(-c2ccncc2)nc2ccccc12	> 80 µM (inactive)
O=C(Nc1cc(F)ccc1F)c1cc(-c2ccncc2)nc2ccccc12	inactive
O=C(Nc1ccccc1Br)c1cc(-c2ccncc2)nc2ccccc12	> 80 µM (inactive)
O=C(Nc1ccc(Cl)cc1)c1cc(-c2ccncc2)nc2ccccc12	7.43 µM
O=C(Nc1cccc(F)c1)c1cc(-c2ccncc2)nc2ccccc12	> 80 µM (inactive)
Cc1cccc(NC(=O)c2cc(-c3ccncc3)nc3ccccc23)c1	> 80 µM (inactive)
O=C(Nc1ccc(C(F)(F)F)cc1)c1cc(-c2ccncc2)nc2ccccc12	1.99 µM
O=C(Nc1ccc(F)cc1)c1cc(-c2ccncc2)nc2ccccc12	inactive
O=C(Nc1cccc(F)c1F)c1cc(-c2ccncc2)nc2ccccc12	> 80 µM (inactive)
COc1cccc(NC(=O)c2cc(-c3ccncc3)nc3ccccc23)c1	> 80 µM (inactive)
O=C(Nc1ccc(Br)c(C(F)(F)F)c1)c1cc(-c2ccncc2)nc2ccccc12	inactive
Cc1cc(NC(=O)c2cc(-c3ccncc3)nc3ccccc23)ccc1Cl	> 80 µM (inactive)
Cc1cc(Br)cc(NC(=O)c2cc(-c3ccncc3)nc3ccccc23)c1	inactive
Cc1cc(NC(=O)c2cc(-c3ccccc3)nc3ccccc23)ccc1Br	> 80 µM (inactive)
